# According to patent US4118418A, “5-Phenenyltris (ureylene) triisophthalic acid salts” (American Cyanamid Company, priority 1977, dated 1978):
# Where a name gives a salt, the structure may show the parent alone.
# What was measured:
# [1] = test system: hereditary angioneurotic edema; conditions: New England Journal of Medicine, 286, 808-812 (1972); cited from earlier work
# complement system = conditions: literature; cited from earlier work
# activated human C1 [2] = molecular target: T1, activated human C1 (Homo sapiens, UniProt P09871); test: Intrinsic Therapeutic Index (Code 026 C1 inhibitor test versus anti-coagulant test); conditions: Table II
# T1 sequence (P09871 16-688): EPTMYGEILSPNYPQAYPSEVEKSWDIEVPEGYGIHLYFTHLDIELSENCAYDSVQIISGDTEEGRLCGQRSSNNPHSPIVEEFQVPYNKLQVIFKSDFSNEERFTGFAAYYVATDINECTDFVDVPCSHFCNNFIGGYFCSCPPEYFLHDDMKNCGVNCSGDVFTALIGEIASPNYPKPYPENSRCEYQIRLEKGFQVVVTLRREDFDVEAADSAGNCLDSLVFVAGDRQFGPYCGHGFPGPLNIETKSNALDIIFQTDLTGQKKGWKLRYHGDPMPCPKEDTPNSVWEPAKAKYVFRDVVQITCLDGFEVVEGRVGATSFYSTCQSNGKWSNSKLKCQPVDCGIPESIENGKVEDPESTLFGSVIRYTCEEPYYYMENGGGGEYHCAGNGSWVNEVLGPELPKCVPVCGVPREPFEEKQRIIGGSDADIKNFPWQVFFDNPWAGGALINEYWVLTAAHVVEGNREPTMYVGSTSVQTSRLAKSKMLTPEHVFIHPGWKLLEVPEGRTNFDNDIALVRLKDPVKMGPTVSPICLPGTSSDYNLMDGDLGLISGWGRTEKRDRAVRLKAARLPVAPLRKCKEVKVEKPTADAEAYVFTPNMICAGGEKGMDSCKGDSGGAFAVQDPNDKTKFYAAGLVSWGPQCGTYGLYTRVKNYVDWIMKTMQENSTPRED
# T1 sequence (P00736 18-705 partner): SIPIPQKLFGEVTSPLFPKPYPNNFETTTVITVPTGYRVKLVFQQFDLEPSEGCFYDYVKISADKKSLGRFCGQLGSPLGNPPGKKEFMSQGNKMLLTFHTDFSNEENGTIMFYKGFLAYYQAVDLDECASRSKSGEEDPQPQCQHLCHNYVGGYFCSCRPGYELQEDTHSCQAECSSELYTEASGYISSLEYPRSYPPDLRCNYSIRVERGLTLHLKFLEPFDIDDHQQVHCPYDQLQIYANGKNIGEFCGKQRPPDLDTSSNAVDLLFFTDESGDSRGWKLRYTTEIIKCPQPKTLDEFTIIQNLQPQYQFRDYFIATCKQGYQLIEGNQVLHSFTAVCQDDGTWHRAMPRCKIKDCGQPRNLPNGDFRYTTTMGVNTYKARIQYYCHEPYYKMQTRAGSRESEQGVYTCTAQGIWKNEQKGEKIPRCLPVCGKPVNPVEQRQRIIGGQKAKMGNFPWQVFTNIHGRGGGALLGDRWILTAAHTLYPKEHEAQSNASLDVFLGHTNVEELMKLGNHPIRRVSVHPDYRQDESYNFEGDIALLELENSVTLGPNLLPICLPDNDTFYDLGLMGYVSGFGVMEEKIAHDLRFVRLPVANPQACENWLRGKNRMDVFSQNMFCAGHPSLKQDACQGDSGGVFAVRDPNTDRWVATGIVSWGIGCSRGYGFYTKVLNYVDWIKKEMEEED
# T1 sequence (P02745 23-245 partner): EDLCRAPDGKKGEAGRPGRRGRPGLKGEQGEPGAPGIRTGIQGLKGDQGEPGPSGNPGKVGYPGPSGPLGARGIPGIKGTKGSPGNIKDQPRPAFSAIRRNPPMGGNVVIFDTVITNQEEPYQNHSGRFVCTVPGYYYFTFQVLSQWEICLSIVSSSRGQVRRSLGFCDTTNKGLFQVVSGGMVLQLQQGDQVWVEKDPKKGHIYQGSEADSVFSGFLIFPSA
# T1 sequence (P02746 28-253 partner): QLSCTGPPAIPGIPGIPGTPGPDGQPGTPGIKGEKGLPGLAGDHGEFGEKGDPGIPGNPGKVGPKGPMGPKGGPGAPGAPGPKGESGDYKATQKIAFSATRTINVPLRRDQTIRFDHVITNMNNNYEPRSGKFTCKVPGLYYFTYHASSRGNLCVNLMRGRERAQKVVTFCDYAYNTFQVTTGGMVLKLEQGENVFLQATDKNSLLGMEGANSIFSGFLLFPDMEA
# T1 sequence (P02747 29-245 partner): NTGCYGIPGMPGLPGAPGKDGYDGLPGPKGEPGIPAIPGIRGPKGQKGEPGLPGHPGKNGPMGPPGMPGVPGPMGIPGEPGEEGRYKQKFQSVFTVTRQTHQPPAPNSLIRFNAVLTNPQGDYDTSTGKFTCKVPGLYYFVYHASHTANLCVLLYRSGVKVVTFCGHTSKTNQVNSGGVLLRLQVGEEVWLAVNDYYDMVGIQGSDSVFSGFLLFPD
# From the text: The computation of an Intrinsic Therapeutic Index (ITI) was devised to correlate the results expressed in wells, obtained in the in vitro Code 026 (C1 inhibitor) test and the in vitro anti-coagulant (AC) test into a meaningful value which would aid in the net evaluation of the activity of the compounds of this invention.
# The ITI is thus a measure of the separation of anti-complement and anti-coagulant activities; the higher the numerical value the more therapeutically useful the separation of activities.
# Citrated sheep plasma = test: in vitro anti-coagulant activity (AC), clotting of recalcified citrated sheep plasma; type: biochemical
# Protocol: The sheep RBC's, kept in suspension throughout the clotting incubation time, become enmeshed in the fibrin matrix if a clot forms. Upon centrifugation of the plate, untrapped RBC's form buttons, the sizes of which correspond to the degree of clot inhibition; this providing a measure of anti-coagulant activity (AC). Sodium heparin is used as a positive control and activity is reported in wells appearing in Table I.
# **Activity in wells a serial dilution assay. Higher well number indicates
# higher activity. The serial dilutions are two-fold.
# activated human C1 [3] = molecular target: T1, activated human C1; test: Test, Code 026 (C1 inhibitor); type: biochemical; conditions: Table II; highest active serial dilution
# From the text: (§1) An active inhibitor protects C2 from C1 and C4; (ii) Test, Code O35 (C3-C9 inhibitor) -- This test determines the ability of the late components of human complement (C3-C9) to lyse EAC l42 in the presence of appropriate dilutions of the test compound. An active inhibitor protects EAC 142 from lysis by human C3-C9; (iii) Test, Code 036 (C-Shunt inhibitor) -- In this test human erythrocytes rendered fragile are lysed in autologous serum via the shunt pathway activated by cobra venom factor in the presence of appropriate dilutions of the test compound. Inhibition of the shunt pathway results in failure of lysis; (iv) Forssman Vasculitis Test -- Here, the well known complement dependent lesion, Forssman vasculitis, is produced in guinea pigs by intradermal injection of rabbit anti-Forssman antiserum. […]
# [4] = test system: shunt pathway activated by cobra venom factor; test: Test, Code 036 (C-Shunt inhibitor), lysis of human erythrocytes in autologous serum via shunt pathway; type: cell-based; conditions: Table I; two-fold serial dilutions
# From the text: as §1
# whole complement = test: Complement Level Reduction Test, whole complement in serum of dosed guinea pigs by capillary tube assay; type: in vivo; conditions: i.p., 200 mg/kg
# From the text: An active inhibitor protects C2 from C1 and C4; (ii) Test, Code O35 (C3-C9 inhibitor) -- This test determines the ability of the late components of human complement (C3-C9) to lyse EAC l42 in the presence of appropriate dilutions of the test compound. An active inhibitor protects EAC 142 from lysis by human C3-C9; (iii) Test, Code 036 (C-Shunt inhibitor) -- In this test human erythrocytes rendered fragile are lysed in autologous serum via the shunt pathway activated by cobra venom factor in the presence of appropriate dilutions of the test compound. Inhibition of the shunt pathway results in failure of lysis; (iv) Forssman Vasculitis Test -- Here, the well known complement dependent lesion, Forssman vasculitis, is produced in guinea pigs by intradermal injection of rabbit anti-Forssman antiserum. The lesion is measured in terms of diameter, edema and hemorrhage and the extent to which a combined index of these is inhibited by prior intraperitoneal injection of the test compound at 200 mg/kg is then reported, unless otherwise stated; (v) Forssman Shock Test -- Lethal shock is produced in guinea pigs by an i.v. injection of anti-Forssman antiserum and the harmonic mean death time of treated guinea pigs is compared with that of simultaneous controls; (vi) Complement Level Reduction Test -- In this test, the above dosed guinea pigs, or others, are bled for serum and the complement level is determined in undiluted serum by the capillary tube method of U.S. Pat. No. 3,876,376 and compared to undosed control guinea pigs; and (vii) Cap 50 Test -- Here, appropriate amounts of the test compound are added to a pool of guinea pig serum in vitro, after which the undiluted serum capillary tube assay referred to above is run. The concentration of compound inhibiting 50% is reported.
# With reference to Table I, guinea pigs weighing about 300 g were dosed intravenously (i.v.) or intraperitoneally (i.p.) with 200 mg/kg of the test compound dissolved in saline and adjusted to pH 7-8. […] Percent inhibition was calculated by comparison with simultaneous controls. […]
# [5] = test system: human serum total hemolytic complement; conditions: in vitro and in vivo, reduction in total hemolytic complement activity; Pathologie Biologie, 25, 33-36 (1977); cited from earlier work
compound,measurement,setting,value
Cc1ccc(C(=O)Nc2ccc(S(=O)(=O)O)c3cc(S(=O)(=O)O)cc(S(=O)(=O)O)c23)cc1NC(=O)c1cccc(NC(=O)Nc2cccc(C(=O)Nc3cc(C(=O)Nc4ccc(S(=O)(=O)O)c5cc(S(=O)(=O)O)cc(S(=O)(=O)O)c45)ccc3C)c2)c1 [Suramin],use in treatment of hereditary angioneurotic edema,[1],used with success
same,anticomplementary effect / complement inhibition,complement system,competitive inhibitor of the complement system
"O=C(Nc1cc(NC(=O)Nc2cc(C(=O)O)cc(C(=O)O)c2)cc(NC(=O)Nc2cc(C(=O)O)cc(C(=O)O)c2)c1)Nc1cc(C(=O)O)cc(C(=O)O)c1 [5,5',5""-(s-Phenenyltriureylene)triisophthalic acid hexasodium salt]",Intrinsic Therapeutic Index,activated human C1 [2]; antilogarithm (base 2) of the difference in wells,256
same,Logarithmic Difference Expressed as Wells,activated human C1 [2]; log (base 2) difference Code 026 minus AC,+8 Wells
same,AC Wells,"Citrated sheep plasma; Table I, anti-coagulant activity, two-fold serial dilutions",< -2 Wells
same,"In Vitro Activity, Anti-Coagulant Activity (Wells) AC","Citrated sheep plasma; Table II, highest active serial dilution",-2 Wells
same,"In Vitro Activity, Complement Inhibiting Activity (Wells) Code 026",activated human C1 [3],+6 Wells
same,Shunt Inhibition 036 Wells,[4],+1 Wells
same,"In Vivo Activity (Guinea Pig) % Inhibition, Intraperitoneal, 30 mins.",whole complement; 30 mins.,-43%
same,"In Vivo Activity (Guinea Pig) % Inhibition, Intraperitoneal, 60 mins.",whole complement; 60 mins.,-9%
same,"In Vivo Activity (Guinea Pig) % Inhibition, Intraperitoneal, 120 mins.",whole complement; 120 mins.,-41%
"Nc1ccc2cc(S(=O)(=O)O)cc(O)c2c1N=Nc1ccc(NC(=O)Nc2ccc(N=Nc3c(N)ccc4cc(S(=O)(=O)O)cc(O)c34)c(S(=O)(=O)O)c2)cc1S(=O)(=O)O [chlorazol fast pink, 3,3'-ureylenebis-[6-(2-amino-8-hydroxy-6-sulfo-1-naphthylazo)]benzenesulfonic acid, tetrasodium salt]",anticomplementary effect / complement inhibition,complement system,anticomplementary effect
heparin,anticomplementary effect / complement inhibition,complement system,anticomplementary effect
NC[C@H]1CC[C@H](C(=O)O)CC1 [tranexamic acid],use in treatment of hereditary angioneurotic edema,[1],used with success
pentosan-poly-sulfoester,anticomplementary activity on human serum,[5],anticomplementary activity on human serum both in vitro and in vivo
NCCCCCC(=O)O [epsilon-aminocaproic acid],use in treatment of hereditary angioneurotic edema,[1],used with success
